Our source for the IC50 values is patent publication US12187742B2 (XRAD Therapeutics, Inc., priority 2018, dated 2025).

A word on the pIC50: it is the IC50 on a negative log10 scale, so that one unit is a factor of ten. A high value points to a low IC50.

The experiment addresses ATM (Homo sapiens (Human), UniProt Q13315). The experiment in a line: ATM in Cell Western Assay (pKAP1 in etoposide-treated MCF-7 cells). Format: cell-based. Here is the method: Assay of Compounds ATM and DNA-PK Inhibition
ATM in Cell Western Assay:
Next day, add corresponding concentration of compounds using pin tool (Echo 550), the final top concentration is 1 μM, 3-fold series dilution, total 10 doses. Then add etoposide (Sigma, #E1383) to a final concentration of 100 μM. Incubate at 37° C. for 1 hr. Fix cells by adding 25 μL of fixing solution (8% paraformaldehyde) for 20 minutes at ambient temperature. Permeabilize cells for 5 washes with 1×PBS (phosphate buffered saline) containing 0.1% Triton X-100; each wash is for 5 minutes. […] The next day, wash the plate 5 times with 1×PBST (1×PBS containing 0.1% Tween-20). […] Wash the cells for 5 times with 1×PBST (1×PBS containing 0.1% Tween-20) at ambient temperature, using gentle shaking in the dark. After the last wash
remove wash solution, turn plate upside down onto a thin paper towel and centrifuge at 1000 rpm for 1 min to absorb all wash buffer. Clean the bottom of plate with moist lint free paper. Scan plate immediately using ODYSSEY CLx (LI-COR) for the best results.

Where [1] appears, read: MCF-7 cells, etoposide 100 μM, 1 hr, pKAP1 readout.
The mark [2] stands for this setting: pKAP1 in etoposide-treated MCF-7 cells.

pIC50: −log10 of the molar value. Counter-ions that a name gives are not always drawn. Where only a bound is given, the exact number is not on record here.

Sequence of ATM (Q13315 whole entry): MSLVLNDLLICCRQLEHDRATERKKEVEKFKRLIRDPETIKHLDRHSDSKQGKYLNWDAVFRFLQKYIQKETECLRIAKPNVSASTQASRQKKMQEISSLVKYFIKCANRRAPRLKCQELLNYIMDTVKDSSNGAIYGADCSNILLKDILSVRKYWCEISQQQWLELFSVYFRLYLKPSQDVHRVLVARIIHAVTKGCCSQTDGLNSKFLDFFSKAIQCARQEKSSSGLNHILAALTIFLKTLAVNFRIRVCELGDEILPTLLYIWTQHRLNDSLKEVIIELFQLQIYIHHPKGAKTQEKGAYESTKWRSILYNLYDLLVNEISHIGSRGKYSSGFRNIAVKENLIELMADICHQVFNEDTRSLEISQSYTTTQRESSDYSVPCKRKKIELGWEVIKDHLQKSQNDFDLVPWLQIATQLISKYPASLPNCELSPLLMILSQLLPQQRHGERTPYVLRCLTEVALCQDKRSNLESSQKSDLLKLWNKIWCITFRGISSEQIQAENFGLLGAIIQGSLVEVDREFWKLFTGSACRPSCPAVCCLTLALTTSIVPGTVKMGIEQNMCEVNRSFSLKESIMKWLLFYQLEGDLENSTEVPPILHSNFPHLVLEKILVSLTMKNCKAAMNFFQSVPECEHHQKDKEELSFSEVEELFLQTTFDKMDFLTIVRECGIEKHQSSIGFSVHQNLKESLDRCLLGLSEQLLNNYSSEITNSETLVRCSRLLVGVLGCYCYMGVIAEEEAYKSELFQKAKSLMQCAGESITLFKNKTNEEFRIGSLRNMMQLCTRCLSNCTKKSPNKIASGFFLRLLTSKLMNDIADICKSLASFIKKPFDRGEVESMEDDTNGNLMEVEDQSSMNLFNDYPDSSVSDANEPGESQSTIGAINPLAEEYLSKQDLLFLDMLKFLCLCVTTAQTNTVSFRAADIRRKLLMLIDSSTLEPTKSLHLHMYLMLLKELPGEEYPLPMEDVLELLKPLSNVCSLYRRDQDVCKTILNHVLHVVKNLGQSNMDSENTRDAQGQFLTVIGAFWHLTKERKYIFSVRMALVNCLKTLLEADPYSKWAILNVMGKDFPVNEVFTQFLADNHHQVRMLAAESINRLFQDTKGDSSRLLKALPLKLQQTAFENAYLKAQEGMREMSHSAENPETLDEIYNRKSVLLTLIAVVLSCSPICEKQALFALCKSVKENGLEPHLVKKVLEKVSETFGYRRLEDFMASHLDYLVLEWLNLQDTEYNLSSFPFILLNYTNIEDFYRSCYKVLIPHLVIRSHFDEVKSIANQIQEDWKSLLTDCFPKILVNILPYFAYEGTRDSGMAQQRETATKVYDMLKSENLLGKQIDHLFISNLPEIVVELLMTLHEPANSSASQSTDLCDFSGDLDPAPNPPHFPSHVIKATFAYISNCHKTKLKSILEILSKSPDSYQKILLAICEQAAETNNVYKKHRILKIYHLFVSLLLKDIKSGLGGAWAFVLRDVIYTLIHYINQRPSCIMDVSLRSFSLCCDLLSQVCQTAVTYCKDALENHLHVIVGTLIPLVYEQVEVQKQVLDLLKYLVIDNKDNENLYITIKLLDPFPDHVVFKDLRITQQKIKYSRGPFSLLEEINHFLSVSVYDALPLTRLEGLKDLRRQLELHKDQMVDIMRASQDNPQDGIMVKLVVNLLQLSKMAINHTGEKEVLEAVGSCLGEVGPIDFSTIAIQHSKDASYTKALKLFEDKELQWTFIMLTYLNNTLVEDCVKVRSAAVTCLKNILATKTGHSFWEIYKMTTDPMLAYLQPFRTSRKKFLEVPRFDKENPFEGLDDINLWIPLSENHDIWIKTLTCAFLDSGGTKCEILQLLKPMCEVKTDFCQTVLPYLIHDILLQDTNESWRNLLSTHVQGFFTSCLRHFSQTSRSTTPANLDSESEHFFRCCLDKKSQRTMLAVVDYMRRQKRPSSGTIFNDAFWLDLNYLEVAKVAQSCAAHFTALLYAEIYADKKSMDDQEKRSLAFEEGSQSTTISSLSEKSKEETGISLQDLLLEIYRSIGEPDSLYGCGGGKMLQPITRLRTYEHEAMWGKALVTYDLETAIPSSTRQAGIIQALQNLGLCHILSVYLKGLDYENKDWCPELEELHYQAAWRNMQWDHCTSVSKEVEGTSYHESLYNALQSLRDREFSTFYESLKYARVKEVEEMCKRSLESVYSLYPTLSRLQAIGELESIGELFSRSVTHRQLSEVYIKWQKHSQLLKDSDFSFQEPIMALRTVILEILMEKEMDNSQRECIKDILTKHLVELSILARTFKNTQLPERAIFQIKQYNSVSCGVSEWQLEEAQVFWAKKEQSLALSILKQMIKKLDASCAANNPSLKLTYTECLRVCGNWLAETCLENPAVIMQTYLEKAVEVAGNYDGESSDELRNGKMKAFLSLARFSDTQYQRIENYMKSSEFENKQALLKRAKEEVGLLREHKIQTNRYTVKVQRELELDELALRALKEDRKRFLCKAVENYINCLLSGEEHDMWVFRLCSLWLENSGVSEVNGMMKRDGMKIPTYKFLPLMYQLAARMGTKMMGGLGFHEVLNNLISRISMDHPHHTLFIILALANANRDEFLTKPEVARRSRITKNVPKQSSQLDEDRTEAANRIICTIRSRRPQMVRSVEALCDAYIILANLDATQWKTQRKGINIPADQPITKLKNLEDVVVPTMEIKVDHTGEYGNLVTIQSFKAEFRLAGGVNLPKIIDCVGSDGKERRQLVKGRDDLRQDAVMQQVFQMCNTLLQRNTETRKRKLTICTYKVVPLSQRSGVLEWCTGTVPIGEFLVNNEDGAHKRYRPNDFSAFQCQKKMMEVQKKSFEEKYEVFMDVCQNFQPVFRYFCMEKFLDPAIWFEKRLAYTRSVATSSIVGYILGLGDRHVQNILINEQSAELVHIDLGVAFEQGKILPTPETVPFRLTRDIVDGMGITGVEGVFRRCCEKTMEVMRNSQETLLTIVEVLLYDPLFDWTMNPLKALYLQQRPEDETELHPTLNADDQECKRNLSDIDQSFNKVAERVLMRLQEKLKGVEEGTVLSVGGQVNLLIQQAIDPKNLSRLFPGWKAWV

For the compound `CN(C)CCCOc1ncc(-c2ccc3ncc4c(c3c2)C2(CC2)C(=O)N4C)cc1-c1ccccc1` [Example 72, 8′-(6-(3-(Dimethylamino)propoxy)-5-phenylpyridin-3-yl)-3′-methylspiro[cyclopropane-1,1′-pyrrolo[2,3-c]quinolin]-2′(3′-H)-one], under setting [1], the pIC50 was below 7.00.
In turn, `CN(C)CCCOc1ncc(-c2ccc3ncc4c(c3c2)N(C)C2(CC2)C(=O)N4C)cc1NS(=O)(=O)c1ccccc1` [Example 74, N-(5-(1′,4′-Dimethyl-3′-oxo-34′-dihydro-1′H-spiro[cyclopropane-1,2′-pyrazino[2,3-c]quinolin]-9′-yl)-2-(3-(dimethylamino)propoxy)pyridin-3-yl) benzenesulfonamide] had a pIC50 under setting [1] below 7.00.
`CN(C)CCCOc1ncc(-c2ccc3ncc4c(c3c2)C2(CCCC2)C(=O)N4C)cc1NC(=O)c1ccccc1` [Example 7] gave a pIC50 under setting [1] below 7.00.
The compound `CN1C(=O)C2(CCC2)c2c1cnc1ccc(-c3cnc(N4CCS(=O)(=O)CC4)c(NS(=O)(=O)c4ccccc4)c3)cc21` [Example 135, N-(2-(1,1-Dioxidothiomorpholino)-5-(3′-methyl-2′-oxo-2′,3′-dihydrospiro[cyclobulane-1,1′-pyrrolo[2,3-c]quinolin]-8′-yl)pyridin-3-yl)benzenesulfonamide hydrochloride] showed a pIC50 under setting [1] below 7.00.
The compound `CN(C)c1ncc(-c2cc3c4c(cnc3cc2F)N(C)C(=O)C42CCC2)cn1` [Example 364, 8′-(2-(Dimethylamino)pyrimidin-5-yl)-7′-fluoro-3′-methylspiro[cyclobutane-1,1′-pyrrolo[2,3-c]quinolin]-2′(3′-H)-one] showed a pIC50 under setting [2] below 7.00.
`COc1ncc(-c2ccc3ncc(Nc4ccn(C)n4)c(=O)n3c2)cc1NS(=O)(=O)c1ccccc1` [Example 16, N-(2-Methoxy-5-(3-((1-methyl-1H-pyrazol-3-yl)amino)-4-oxo-4H-pyrido[1,2-a]pyrimidin-7-yl)pyridin-3-yl)benzenesulfonamide] showed a negative logarithm of the IC50 (pIC50) under setting [1] below 7.00.
`CN1C(=O)C2(CC2)c2c1cnc1ccc(-c3ccc4nc(Cl)ccc4c3)cc21` [Example 41, 8′-(2-Chloroquinolin-6-yl)-3′-methylspiro [cyclopropane-1,1′-pyrrolo [2,3-c]quinolin]-2′(3′-H)-one]: the pIC50 under setting [1] was below 7.00.
As for `CC(C)NCCOc1ncc(-c2cc3c(cc2F)ncc2c3[C@]3(C[C@H](c4cc[nH]c(=O)c4)C3)C(=O)N2C)cc1NS(C)(=O)=O` [Example 444, cis-N-(5-(7′-fluoro-3′-methyl-2′-oxo-3-(2-oxo-1,2-dihydropyridin-4-yl)-2,3′-dihydrospiro[cyclobulane-1,1′-pyrrolo[2,3-c]quinolin]-8′-yl)-2-(2-(isopropylamino)ethoxy)pyridin-3-yl)methanesulfonamide], the pIC50 under setting [2] was below 7.00.
Same read-out and setting: to `CN1C(=O)C2(CCC2)c2c1cnc1cc(F)c(-c3cnc(OCCNCC(F)(F)F)c(NS(C)(=O)=O)c3)cc21` [Example 378, N-(5-(7′-Fluoro-3′-methyl-2′-oxo-2′,3′-dihydrospiro [cyclobutane-1,1′-pyrrolo[2.3-c]quinolin]-8′-yl)-2-(2-((2,2,2-trifluoroethyl)amino)ethoxy)pyridin-3-yl) methanesulfonamide hydrochloride] belongs below 7.00.
`CN1C(=O)C2(CCC2)c2c1cnc1ccc(-c3cnc(N4CC5(CN(C(=O)OC(C)(C)C)C5)C4)c(NS(C)(=O)=O)c3)cc21` [Example 347, tert-Butyl 6-(5-(3′-methyl-2′-oxo-2′,3′-dihydrospiro [cyclobutane-1,1′-pyrrolo[2,3-c]quinolin]-8′-yl)-3-(methylsulfonamido)pyridin-2-yl)-2,6-diazaspiro[3.3] heptane-2-carboxylate] had a pIC50 under setting [2] below 7.00.
For `CC(C)NCCOc1ncc(-c2cc3c(cc2F)ncc2c3[C@]3(C[C@@H](OC(C)c4ccccc4)C3)C(=O)N2C)cc1NS(C)(=O)=O` (stereo partly drawn) [Example 398, trans-N-(5-(7′-Fluoro-3′-methyl-2′-oxo-3-(1-phenylethoxy)-2′,3′-dihydrospiro[cyclobutane-1,1′-pyrrolo[2,3-c]quinolin]-8′-yl)-2-(2-(isopropylamino)ethoxy)pyridin-3-yl)methanesulfonamide], the pIC50 under setting [2] is below 7.00.
As to `CCC(C)N1CC2(C1)C(=O)N(C)c1cnc3cc(F)c(-c4cnc(OCCNC(C)C)c(NS(C)(=O)=O)c4)cc3c12` (stereo not drawn) [Example 487, N-(5-(1-(sec-Butyl)-7′-fluoro-3′-methyl-2′-oxo-2′,3′-dihydrospiro[azetidine-3,1′-pyrrolo[2,3-c]quinolin]-8′-yl)-2-(2-(isopropylamino)ethoxy)pyridin-3-yl)methanesulfonamide], under setting [2], the pIC50 was 7.00 to 9.00.
On the same count and under the same terms, to `CC(C)NCCOc1ncc(-c2cc3c(cc2F)ncc2c3[C@]3(C[C@@H](O)C3)C(=O)N2C)cc1NS(C)(=O)=O` [Example 382, trans-N-(5-(7′-Fluoro-3-hydroxy-3′-methyl-2′-oxo-2′,3′-dihydrospiro[cyclobutane-1,1′-pyrrolo[2,3-c]quinolin]-8′-yl)-2-(2-(isopropylamino)ethoxy)pyridin-3-yl)methanesulfonamide] belongs 7.00 to 9.00; to `CC(C)NCCOc1ncc(-c2cc3c(cc2F)ncc2c3[C@]3(C[C@@H](Nc4ccc(Cl)cc4)C3)C(=O)N2C)cc1NS(C)(=O)=O` [Example 462, trans-N-(5-(3-((4-Chlorophenyl)amino)-7′-fluoro-3′-methyl-2′-oxo-2′,3′-dihydrospiro[cyclobutane-1,1′-pyrrolo[2,3-c]quinolin]-8′-yl)-2-(2-(isopropylamino)ethoxy)pyridin-3-yl)methanesulfonamide], 7.00 to 9.00.
Under setting [1], `COc1ncc(-c2ccc3ncc4c(c3c2)C2(CC2)C(=O)N4CCC#N)cc1NS(=O)(=O)c1ccccc1` [Example 27, N-(5-(3′-(2-Cyanoethyl)-2′-oxo-2′,3′-dihydrospiro[cyclopropane-1,1′-pyrrolo[2,3-c]quinolin]-8′-yl)-2-methoxypyridin-3-yl)benzenesulfonamide] had a pIC50 below 7.00.
Consider `CNC[C@H]1C[C@@]2(C1)C(=O)N(C)c1cnc3cc(F)c(-c4cnc(OCCNC(C)C)c(NS(C)(=O)=O)c4)cc3c12` [Example 455, trans-N-(5-(7′-Fluoro-3′-methyl-3-((methylamino)methyl)-2′-oxo-2′,3′-dihydrospiro[cyclobutane-1,1′-pyrrolo[2,3-c]quinolin]-8′-yl)-2-(2-(isopropylamino)ethoxy)pyridin-3-yl)methanesulfonamide hydrochloride], for which, under setting [2], the negative-log IC50 (pIC50) is below 7.00.
In turn, `CN1C(=O)C2(CCC2)c2c1cnc1ccc(-c3cnc(N4CC5(CNC5)C4)c(NS(C)(=O)=O)c3)cc21` [Example 346, N-(5-(3′-Methyl-2′-oxo-2′,3′-dihydrospiro[cyclobutane-1,1 pyrrole[2,3-c]quinolin]-8′-yl)-2-(2,6-diazaspiro[3.3]heptan-2-yl)pyridin-3-yl) methanesulfonamide formate] gave a pIC50 under setting [2] below 7.00.
`CC(C)NCCOc1ncc(-c2cc3c(cc2F)ncc2c3[C@]3(C[C@H](CN(C)C)C3)C(=O)N2C)cc1NS(C)(=O)=O` [Example 452, cis-N-(5-(3-((Dimethylamino)methyl)-7′-fluoro-3′-methyl-2′-oxo-2′,3′-dihydrospiro[cyclobutane-1,1′-pyrrolo[2,3-c]quinolin]-8′-yl)-2-(2-(isopropylamino)ethoxy)pyridin-3-yl)methanesulfonamide] showed a pIC50 under setting [2] of 7.00 to 9.00.
For the compound `CC(C)NCCOc1ncc(-c2cc3c4c(cnc3cn2)N(C)C(=O)C42CCC2)cc1NS(C)(=O)=O` [Example 562, N-(2-(2-(Isopropylamino)ethoxy)-5-(3′-methyl-2′-oxo-2′,3′-dihydrospiro [cyclobutane-1,1′-pyrrolo[2,3-c] [1,7]naphthyridin]-8′-yl)pyridin-3-yl)methanesulfonamide], the pIC50 under setting [2] was below 7.00.
As for `COCCN1CC2(C1)C(=O)N(C)c1cnc3cc(F)c(-c4cnc(OCCNC(C)C)c(NS(C)(=O)=O)c4)cc3c12` [Example 507, N-(5-(7′-Fluoro-1-(2-methoxyethyl)-3 methyl-2′-oxo-2′,3′-dihydrospiro[azetidine-3,1′-pyrrolo[2,3-c]quinolin]-8′-yl)-2-(2-(isopropylamino)ethoxy)pyridin-3-yl)methanesulfonamide], the pIC50 under setting [2] is 7.00 to 9.00.
In turn, `CC(C)Nc1cc(-c2ccc3ncc4c(c3c2)C2(CC2)C(=O)N4C)cnc1OCCCN(C)C` [Example 34, 8′-(6-(3-(Dimethylamino)propoxy)-5-(isopropylamino)pyridin-3-yl)-3′-methylspiro[cyclopropane-1,1′-pyrrolo[2,3-c]quinolin]-2′(3′-H)-one] gave a pIC50 under setting [1] below 7.00.
As to `CN1C(=O)C2(CN(CC(F)(F)F)C2)c2c1cnc1ccc(-c3cnc(N4CC(N(C)C)C4)c(NS(C)(=O)=O)c3)cc21` [Example 480], the pIC50 under setting [2] was 7.00 to 9.00.
Still for that read-out and setting: under `CCN1C(=O)C2(CCC2)c2c1cnc1ccc(-c3cnc(N4CC(N(C)C)C4)c(NS(=O)(=O)c4ccccc4)c3)cc21` [Example 337, N-(2-(3-(Dimethylamino)azetidin-1-yl)-5-(3′-ethyl-2′-oxo-2′,3′-dihydrospiro[cyclobutane-1,1′-pyrrolo[2,3-c]quinolin]-8′-yl)pyridin-3-yl)benzenesulfonamide] stands 7.00 to 9.00.
Under setting [1], `CCCCN(C)S(=O)(=O)Nc1cc(-c2ccc3ncc4c(c3c2)C2(CCC2)C(=O)N4C)cnc1OCCCN(C)C` [Example 176] had a pIC50 of 7.00 to 9.00.
